Reference: patent US11247987B2, “Inhibiting ubiquitin specific peptidase 30” (FORMA Therapeutics, Inc., priority 2017, dated 2022)

Each compound was assayed against T1, human recombinant USP30 (Homo sapiens, UniProt Q70CQ3) (assay: Ubiquitin-Rhodamine 110 Assay for USP30 Activity (USP30 Inhibitor Biochemical Assay)). Details: 0.2 nM USP30, 25 nM Ub-Rh110, 30 min preincubation, 30 min at room temperature; read-out: USP30 potency range (USP30 biochemical IC50 assay, IC50 ranges).
T1 construct: purchased Boston Biochem E-582
T1 sequence (Q70CQ3 1-517): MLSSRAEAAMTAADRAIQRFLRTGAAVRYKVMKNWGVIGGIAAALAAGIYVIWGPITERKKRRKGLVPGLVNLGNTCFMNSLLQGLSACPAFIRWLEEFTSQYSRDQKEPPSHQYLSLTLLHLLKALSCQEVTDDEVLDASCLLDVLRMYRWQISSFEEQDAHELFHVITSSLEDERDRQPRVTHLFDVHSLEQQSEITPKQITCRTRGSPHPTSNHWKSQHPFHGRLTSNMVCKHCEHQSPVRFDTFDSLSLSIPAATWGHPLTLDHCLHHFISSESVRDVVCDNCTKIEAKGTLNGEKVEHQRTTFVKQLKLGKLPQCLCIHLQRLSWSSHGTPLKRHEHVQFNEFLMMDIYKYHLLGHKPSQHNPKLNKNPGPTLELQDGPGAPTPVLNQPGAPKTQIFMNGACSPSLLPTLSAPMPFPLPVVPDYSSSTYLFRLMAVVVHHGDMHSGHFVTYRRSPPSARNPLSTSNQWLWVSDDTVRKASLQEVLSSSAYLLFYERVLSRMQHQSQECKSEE
Outline: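 Human recombinant USP30 (0.2 nM final) was preincubated 30 min with compound (25 μM to 1.3 nM, 10-point) in Tris pH 8.0, 1 mM GSH, BGG and Triton X-100. Ub-Rh110 was then added for 30 min at room temperature and stopped with citric acid. Fluorescence at 485/535 nm gave % inhibition and a 4-parameter IC50 fit.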
For `N#CN[C@H]1C[C@@H](C(=O)Nc2ncc(C3CCCCC3)s2)C1` [Compound 5-3, cis-3-(cyanoamino)-N-(5-cyclohexyl-1,3-thiazol-2-yl)cyclobutane-1-carboxamide], the IC50 was 1000 to 10000 nM. Compound `N#CN[C@H]1C[C@H](C(=O)Nc2nc(C3CC3)c(C3CCCCC3)s2)C1` [Compound 1-25, (1r,3r)-3-(cyanoamino)-N-(5-cyclohexyl-4-cyclopropyl-1,3-thiazol-2-yl)cyclobutane-1-carboxamide] has an IC50 of under 100 nM. For `N#CN[C@H]1CCC[C@@H](C(=O)Nc2ncc(C3CCCCC3)s2)C1` [Compound 10-4, (1R,3S)-3-(cyanoamino)-N-(5-cyclohexyl-1,3-thiazol-2-yl)cyclohexane-1-carboxamide], the IC50 was over 25000 nM. Work on `N#CN[C@H]1C[C@H](C(=O)Nc2cnc(C3CCCCC3)s2)C1` [Compound 1-3, (1r,3r)-3-(cyanoamino)-N-(2-cyclohexyl-1,3-thiazol-5-yl)cyclobutane-1-carboxamide] yielded an IC50 of under 100 nM. Compound `N#CN[C@H]1C[C@@H](C(=O)Nc2ccn(-c3ccccc3)n2)C1` [Compound 5-2, cis-3-(cyanoamino)-N-(1-phenyl-1H-pyrazol-3-yl)cyclobutane-1-carboxamide] has an IC50 of 10000 to 25000 nM. Compound `N#CN[C@H]1C[C@@](F)(C(=O)Nc2cc(-c3ccc(C(F)(F)F)cc3)n[nH]2)C1` [Compound 1-57, (1r,3r)-3-(cyanoamino)-1-fluoro-N-{3-[4-(trifluoro-methyl)phenyl]-1H-pyrazol-5-yl}cyclobutane-1-carboxamide] has an IC50 of 100 to 1000 nM. `N#CN[C@H]1CC[C@@H](C(=O)Nc2ncc(C3CCCCC3)s2)CC1` [Compound 10-1, cis-4-(cyanoamino)-N-(5-cyclohexyl-1,3-thiazol-2-yl)cyclohexane-1-carboxamide] showed an IC50 of 100 to 1000 nM. `N#CN[C@H]1C[C@H](C(=O)Nc2ncc(C3CCOCC3)s2)C1` [Compound 1-1, trans-3-(cyanoamino)-N-[5-(oxan-4-yl)-1,3-thiazol-2-yl]cyclobutane-1-carboxamide] gave an IC50 of 1000 to 10000 nM. With `C[C@H]1CCCC[C@@H]1c1cnc(NC(=O)[C@H]2C[C@H](NC#N)C2)s1` [Compound 1-23, (1r,3r)-3-(cyanoamino)-N-{5-[(1S,2S)-2-methylcyclohexyl]-1,3-thiazol-2-yl}cyclobutane-1-carboxamide] the IC50 was under 100 nM. Work on `N#CN[C@H]1C[C@@](F)(C(=O)Nc2nc(Cl)c(C3CCCCC3)s2)C1` [Compound 1-48, (1r,3r)-N-(4-chloro-5-cyclohexyl-1,3-thiazol-2-yl)-3-(cyanoamino)-1-fluorocyclobutane-1-carboxamide] yielded an IC50 of under 100 nM. `N#CN[C@H]1C[C@H](C(=O)Nc2ccc(F)c(N3CCCCC3)c2)C1` [Compound 1-63, (1r,3r)-3-(cyanoamino)-N-[4-fluoro-3-(piperidin-1-yl)phenyl]cyclobutane-1-carboxamide] was tested, and the IC50 was 100 to 1000 nM. In the case of `N#CN[C@H]1C[C@H](C(=O)Nc2ccc(N3CCOCC3)cc2)C1` [Compound 5-14, trans-3-(cyanoamino)-N-[4-(morpholin-4-yl)phenyl]cylobutane-1-carboxamide], the IC50 is reported as 10000 to 25000 nM. For `N#CN[C@H]1C[C@@H](C(=O)Nc2nc(Cl)c(C3CCCCC3)s2)C1` [Compound 1-18, (1s,3s)-N-(4-chloro-5-cyclohexyl-1,3-thiazol-2-yl)-3-(cyanoamino)cyclo-butane-1-carboxamide], the IC50 was 100 to 1000 nM. For `CC(C)(C)c1sc(NC(=O)[C@]2(Cl)C[C@@H](NC#N)C2)nc1Cl` (single isomer, unassigned) [Compound 9-1, (1s,3s)-N-(5-tert-butyl-4-chloro-1,3-thiazol-2-yl)-1-chloro-3-(cyanoamino)cyclobutane-1-carboxamide], the IC50 was under 100 nM. In the case of `Cc1nc(NC(=O)[C@H]2C[C@H](NC#N)C2)sc1C1CCCCC1` [Compound 1-29, (1r,3r)-3-(cyanoamino)-N-(5-cyclohexyl-4-methyl-1,3-thiazol-2-yl)cyclobutane-1-carboxamide], the IC50 is reported as under 100 nM. `CN(c1nc(Cl)c(C(C)(C)C)s1)C(=O)[C@H]1C[C@H](NC#N)C1` [Compound 1-50, (1r,3r)-N-(5-tert-butyl-4-chloro-1,3-thiazol-2-yl)-3-(cyanoamino)-N-methylcyclobutane-1-carboxamide] showed an IC50 of under 100 nM. With `N#CN[C@H]1C[C@@]2(CCN(c3nc(Cl)c(C4CCCCC4)s3)C2=O)C1` [Compound 7-2, {[(2s,4r)-6-(4-chloro-5-cyclohexyl-l,3-thiazol-2-yl)-5-oxo-6-azaspiro[3.4]octan-2-yl]amino}carbonitrile] the IC50 was 100 to 1000 nM. With `N#CN[C@H]1C[C@H](C(=O)Nc2ncc([C@@H]3CCCC[C@H]3C(F)(F)F)s2)C1` (single isomer, unassigned) [Compound 1-35] the IC50 was 100 to 1000 nM. For `CC1(C)CCCC[C@H]1c1ncc(NC(=O)[C@H]2C[C@H](NC#N)C2)s1` (single isomer, unassigned) [Compound 1-13], the IC50 was 100 to 1000 nM. With `CC(C)(C)c1cnc(NC(=O)[C@H]2C[C@@H](NC#N)C2)s1` [Compound 5-10, cis-N-(5-tert-butyl-1,3-thiazol-2-yl)-3-(cyanoamino)cyclobutane-1-carboxamide] the IC50 was 10000 to 25000 nM. Compound `N#CN[C@H]1C[C@](F)(C(=O)Nc2nc(Cl)c(C3CCCCC3)s2)C1` [Compound 1-47, (1s,3s)-N-(4-chloro-5-cyclohexyl-1,3-thiazol-2-yl)-3-(cyanoamino)-1-fluorocyclobutane-1-carboxamide] has an IC50 of 100 to 1000 nM. `CC(C)Oc1ccccc1-c1ncc(NC(=O)[C@H]2C[C@H](NC#N)C2)s1` [Compound 1-8, (1r,3r)-3-(cyanoamino)-N-{2-[2-(propan-2-yloxy)phenyl]-1,3-thiazol-5-yl}cyclobutane-1-carboxamide] showed an IC50 of 100 to 1000 nM. With `N#CN[C@H]1CC[C@H](C(=O)Nc2ccn(-c3ccccc3)n2)C1` [Compound 12-2, (1S,3S)-3-(cyanoamino)-N-(1-phenyl-1H-pyrazol-3-yl)cyclopentane-1-carboxamide] the IC50 was 10000 to 25000 nM. `Cc1nc(C2CCCCC2)sc1NC(=O)[C@H]1C[C@H](NC#N)C1` [Compound 1-7, (1r,3r)-3-(cyanoamino)-N-(2-cyclohexyl-4-methyl-1,3-thiazol-5-yl)cyclobutane-1-carboxamide] gave an IC50 of 100 to 1000 nM. In the case of `Cn1cc(-c2ccc(-c3cc(C(=O)N[C@H]4C[C@@H](NC#N)C4)on3)cc2)cn1` [Compound 3-3, 3-[4-(1-methyl-1H-pyrazol-4-yl)phenyl]-N-[(1s,3s)-3-(cyanoamino)cyclobutyl]-1,2-oxazole-5-carboxamide], the IC50 is reported as 100 to 1000 nM. `CC(C)(C)[C@H]1CC[C@@H](NC(=O)[C@H]2C[C@H](NC#N)C2)CC1` [Compound 1-71, (1r,3r)-3-(cyanoamino)-N-[(1s,4s)-4-tert-butylcyclohexyl]cyclo-butane-1-carboxamide] gave an IC50 of 100 to 1000 nM. Compound `N#CN[C@H]1C[C@H](C(=O)Nc2ccn(-c3ccccc3)n2)C1` [Compound 5-6, trans-3-(cyanoamino)-N-(1-phenyl-1H-pyrazol-3-y1)cyclobutane-1-carboxamide] has an IC50 of 1000 to 10000 nM. `N#CN[C@@H]1C[C@H]1C(=O)Nc1ncc(C2CCCCC2)s1` (relative stereo) [Compound 11-1, trans-2-(cyanoamino)-N-(5-cyclohexyl-1,3-thiazol-2-yl)cyclopropane-1-carboxamide] was tested, and the IC50 was 1000 to 10000 nM. Compound `Cn1nc(NC(=O)[C@H]2C[C@H](NC#N)C2)cc1C1CCCCC1` [Compound 1-30, (1r,3r)-3-(cyanoamino)-N-(5-cyclohexyl-1-methyl-1H-pyrazol-3-yl)cyclobutane-1-carboxamide] has an IC50 of 100 to 1000 nM. Compound `Cn1nc(C2CCCCC2)cc1NC(=O)[C@H]1C[C@H](NC#N)C1` [Compound 1-6, (1r,3r)-3-(cyanoamino)-N-(3-cyclohexyl-1-methyl-1H-pyrazol-5-yl)cyclobutane-1-carboxamide] has an IC50 of 100 to 1000 nM. With `N#CN[C@H]1C[C@H](C(=O)Nc2cnc(C3CC(F)(F)C3)s2)C1` [Compound 1-9, (1r,3r)-3-(cyanoamino)-N-[2-(3,3-difluoro-cyclobutyl)-1,3-thiazol-5-yl]cyclobutane-1-carboxamide] the IC50 was 100 to 1000 nM. `N#CN[C@H]1C[C@](F)(C(=O)Nc2cc(-c3ccc(C(F)(F)F)cc3)n[nH]2)C1` [Compound 1-56, (1s,3s)-3-(cyanoamino)-1-fluoro-N-{3-[4-(trifluoro-methyl)phenyl]-1H-pyrazol-5-yl}cyclobutane-1-carboxamide] gave an IC50 of 100 to 1000 nM. In the case of `N#CN[C@H]1CCN(C(=O)Nc2ncc(C3CCCCC3)s2)C1` [Compound 2-2, (3S)-3-(cyanoamino)-N-(5-cyclohexyl-1,3-thiazol-2-yl)pyrrolidine-1-carboxamide], the IC50 is reported as 1000 to 10000 nM. For `N#CN[C@H]1C[C@H]1C(=O)Nc1ncc(C2CCCCC2)s1` (relative stereo) [Compound 11-2, cis-2-(cyanoamino)-N-(5-cyclohexyl-1,3-thiazol-2-yl)cyclopropane-1-carboxamide], the IC50 was 1000 to 10000 nM. `N#CN[C@H]1CCN(C(=O)c2csc(-c3cccc(Cl)c3Cl)n2)C1` [Compound 12-8, {[(3S)-1-[2-(2,3-dichlorophenyl)-1,3-thiazole-4-carbonyl]pyrolidin-3-yl]amino}carbonitrile] showed an IC50 of 1000 to 10000 nM. With `N#CN[C@@H]1CCC[C@H](C(=O)Nc2ncc(C3CCCCC3)s2)C1` [Compound 10-6, (1S,3R)-3-(cyanoamino)-N-(5-cyclohexyl-1,3-thiazol-2-yl)cyclohexane-1-carboxamide] the IC50 was 1000 to 10000 nM.
